The values below come from patent US10913738B2 (BRISTOL-MYERS SQUIBB COMPANY, priority 2017, dated 2021).

Like-named read-outs stand apart in the source and are kept apart here.

The test system of assay [1] is MLKL phosphorylation in HT29-L23 human colorectal adenocarcinoma cells. The assay is described as follows: MLKL Phosphorylation High-Content Assay. Format: cell-based. As to conditions: Homo sapiens. Put shortly:
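Cells incubated six hours at 37° C., then phospho-MLKL (S358) immunostained overnight at 4° C. and imaged by high-content microscopy. Phosphorylation quantified as mean circ-ring average intensity ratio; IC50 and Ymax from 4-parameter logistic fits.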

Assay [2] addresses T1, His-GST-TVMV-hRIPK1(1-324) (Homo sapiens, UniProt Q13546).
T1 construct: The coding region of human RIPK1(1-324) flanked by NdeI site at 5′ end; made in house; host or cells: Spodoptera frugiperda (Sf9) insect cells, baculovirus
T1 sequence (Q13546 1-324): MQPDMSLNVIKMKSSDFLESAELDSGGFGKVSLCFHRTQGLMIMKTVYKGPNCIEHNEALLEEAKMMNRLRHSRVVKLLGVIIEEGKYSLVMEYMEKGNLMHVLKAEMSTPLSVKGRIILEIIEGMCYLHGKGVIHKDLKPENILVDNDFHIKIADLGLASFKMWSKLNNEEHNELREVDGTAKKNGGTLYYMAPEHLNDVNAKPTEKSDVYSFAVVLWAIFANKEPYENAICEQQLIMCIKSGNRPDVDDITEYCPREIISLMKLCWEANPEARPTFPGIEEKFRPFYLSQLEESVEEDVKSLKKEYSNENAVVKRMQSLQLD
Kind of assay: RIPK1 HTRF Binding Assay. (In general: Time-resolved FRET reads energy transfer from a long-lived donor to a nearby acceptor.)

[3] abbreviates: x marks IC50 class 20-200 nM, read-out: pMLKL cell activity 20-200 nM.
Setting [4] is: x marks IC50 class <20 nM, read-out: RIPK1 HTRF binding <20 nM.
Where [5] appears, read: x marks IC50 class >200 nM, read-out: pMLKL cell activity >200 nM.
The mark [6] stands for this setting: x marks IC50 class 20-200 nM, read-out: RIPK1 HTRF binding 20-200 nM.
Setting [7] is: x marks IC50 class <20 nM, read-out: pMLKL cell activity <20 nM.

For the compound `[2H]C([2H])([2H])Nc1nc2cc(-c3cnc(C)c(C(=O)N[C@H](C)c4cc(OC(F)(F)F)ccc4F)c3)ccn2n1` [Example 375, (R)—N-(1-(2-fluoro-5-(trifluoromethoxy)phenyl)ethyl)-2-methyl-5-(2-((methyl-d3)amino)-[1,2,4]triazolo[1,5-a]pyridin-7-yl)nicotinamide], the IC50 in assay [1] (setting [3]) is 20 to 200 nM; in assay [2] (setting [4]) it was less than 20 nM.

For the compound `COc1nc(C)c(-c2ccn3nc(N)nc3c2)cc1C(=O)NCc1ncccc1OCC(F)(F)F` [Example 366, 5-(2-amino-[1,2,4]triazolo[1,5-a]pyridin-7-yl)-2-methoxy-6-methyl-N-((3-(2,2,2-trifluoroethoxy)pyridin-2-yl)methyl)nicotinamide], the IC50 in assay [1] (setting [5]) is more than 200 nM; in assay [2] (setting [4]), less than 20 nM.

Turning to `Cc1nc(C)c(-c2ccn3nc(N)nc3c2)cc1C(=O)NCC(O)COc1ccccc1` (centres unmarked) [Example 172, 5-{2-amino-[1,2,4]triazolo[1,5-a]pyridin-7-yl}-N-(2-hydroxy-3-phenoxypropyl)-2,6-dimethylpyridine-3-carboxamide], the IC50 in assay [1] (setting [3]) was 20 to 200 nM; in assay [2] (setting [4]) it was less than 20 nM.

Turning to `[2H]C([2H])([2H])[C@H](NC(=O)c1cc(-c2ccn3nc(N)nc3c2)cnc1C)c1cc(C(F)(F)F)ccc1F` [Example 302, (S)-5-(2-amino-[1,2,4]triazolo[1,5-a]pyridin-7-yl)-N-(1-(2-fluoro-5-(trifluoromethyl)phenyl)ethyl-2,2,2-H3)-2-methylnicotinamide], the IC50 in assay [1] (setting [3]) is 20 to 200 nM; in assay [2] (setting [4]), less than 20 nM.

`Cc1nc(C)c(-c2ccn3nc(N)nc3c2)cc1C(=O)NCC(O)Cc1ccccc1` (centres unmarked) [Example 173]: the IC50 is more than 200 nM in assay [1] (setting [5]) and 20 to 200 nM in assay [2] (setting [6]).

`COc1ncc(-c2ccn3nc(N)nc3c2)cc1C(=O)NCc1cnccc1OC1CCCC1` [Example 21, 5-{2-Amino-[1,2,4]triazolo[1,5-a]pyridin-7-yl}-N-{[4-(cyclopentyloxy)pyridin-3-yl]methyl}-2-methoxypyridine-3-carboxamide]: the IC50 in assay [1] (setting [3]) is 20 to 200 nM; in assay [2] (setting [4]), less than 20 nM.

`COc1ncc(-c2ccn3nc(N)nc3c2)cc1C(=O)NCc1ccc(F)cc1OCC1CCCC1` [Example 130, 5-{2-amino-[1,2,4]triazolo[1,5-a]pyridin-7-yl}-N-{[2-(cyclopentylmethoxy)-4-fluorophenyl]methyl}-2-methoxypyridine-3-carboxamide]: the values for the IC50 in assay [1] (setting [3]) and in assay [2] (setting [4]) were 20 to 200 nM and less than 20 nM, respectively.

Take `Cc1ncc(-c2ccn3nc(N)nc3c2)cc1C(=O)NCc1cccnc1OCC1CCC1` [Example 233, 5-{2-amino-[1,2,4]triazolo[1,5-a]pyridin-7-yl}-N-{[2-(cyclobutylmethoxy)pyridin-3-yl]methyl}-2-methylpyridine-3-carboxamide]: the IC50 in assay [1] (setting [5]) was more than 200 nM; in assay [2] (setting [4]) it was less than 20 nM.

Turning to `COc1nc(C)c(-c2ccn3nc(N)nc3c2)cc1C(=O)NCc1ccccc1OC(F)(F)F` [Example 211, 5-{2-amino-[1,2,4]triazolo[1,5-a]pyridin-7-yl}-2-methoxy-6-methyl-N-{[2-(trifluoromethoxy)phenyl]methyl}pyridine-3-carboxamide], the IC50 was 20 to 200 nM in assay [1] (setting [3]) and less than 20 nM in assay [2] (setting [4]).

Regarding `Cc1ncc(-c2ccn3nc(N)nc3c2)cc1C(=O)NCc1cc(F)cc(F)c1OC1CC1` [Example 308, 5-(2-amino-[1,2,4]triazolo[1,5-a]pyridin-7-yl)-N-(2-cyclopropoxy-3,5-difluorobenzyl)-2-methylnicotinamide], the IC50 in assay [1] (setting [3]) and in assay [2] (setting [6]) was 20 to 200 nM throughout.

Consider `[2H]C([2H])(NC(=O)c1cc(-c2ccn3nc(N)nc3c2)cnc1Cl)c1cc(OC(F)(F)F)ccc1F` [Example 171, 5-{2-amino-[1,2,4]triazolo[1,5-a]pyridin-7-yl}-2-chloro-N-{[2-fluoro-5-(trifluoromethoxy)phenyl](deutero)methyl}pyridine-3-carboxamide], for which the IC50 in assay [1] (setting [3]) and in assay [2] (setting [6]) was 20 to 200 nM in each case.

With `Cc1nc(C)c(-c2ccn3nc(N)nc3c2)cc1C(=O)NCc1cc(OCC2CC2)ccc1F` [Example 290, 5-(2-amino-[1,2,4]triazolo[1,5-a]pyridin-7-yl)-N-(5-(cyclopropylmethoxy)-2-fluorobenzyl)-2,6-dimethylnicotinamide], the IC50 in assay [1] (setting [3]) is 20 to 200 nM; in assay [2] (setting [4]), less than 20 nM.

For `COc1nc(C)c(-c2ccn3nc(N)nc3c2)cc1C(=O)NCc1cc(F)cc(F)c1O[C@H]1CCOC1` [Example 351, (S)-5-(2-amino-[1,2,4]triazolo[1,5-a]pyridin-7-yl)-N-(3,5-difluoro-2-((tetrahydrofuran-3-yl)oxy)benzyl)-2-methoxy-6-methylnicotinamide], the IC50 in assay [1] (setting [7]) and in assay [2] (setting [4]) was less than 20 nM throughout.

Consider `Nc1nc2cc(-c3cncc(C(=O)NCc4ccccc4Sc4ccccc4CO)c3)ccn2n1` [Example 59, 5-{2-Amino-[1,2,4]triazolo[1,5-a]pyridin-7-yl}-N-{[(2-[2-(hydroxymethyl)phenyl]sulfanyl}phenyl)methyl]pyridine-3-carboxamide], for which the IC50 is 20 to 200 nM in assay [1] (setting [3]) and less than 20 nM in assay [2] (setting [4]).

For `COc1ncc(-c2ccn3nc(N)nc3c2)cc1C(=O)NCc1cccc(C(F)(F)F)c1` [Example 119, 5-{2-amino-[1,2,4]triazolo[1,5-a]pyridin-7-yl}-2-methoxy-N-{[3-(trifluoromethyl)phenyl]methyl}pyridine-3-carboxamide], the IC50 was more than 200 nM in assay [1] (setting [5]) and 20 to 200 nM in assay [2] (setting [6]).

Turning to `Cc1nc(C)c(-c2ccn3nc(N)nc3c2)cc1C(=O)NCCC(C)c1ccccc1` (centres unmarked) [Example 174, 5-{2-amino-[1,2,4]triazolo[1,5-a]pyridin-7-yl}-2,6-dimethyl-N-(3-phenylbutyl)pyridine-3-carboxamide], the results for the IC50 in assay [1] (setting [5]) and in assay [2] (setting [6]) were more than 200 nM and 20 to 200 nM, respectively.

Regarding `Cc1nc(C)c(-c2ccn3nc(N)nc3c2)cc1C(=O)NCCc1cccc(OC(F)(F)F)c1` [Example 175, 5-{2-amino-[1,2,4]triazolo[1,5-a]pyridin-7-yl}-2,6-dimethyl-N-{2-[3-(trifluoromethoxy)phenyl]ethyl}pyridine-3-carboxamide], the IC50 in assay [1] (setting [7]) and in assay [2] (setting [4]) was less than 20 nM each time.

On to `Cc1ncc(-c2ccn3nc(N)nc3c2)cc1NC(=O)c1cc(OC(F)(F)F)ccc1F` [Example 419, N-(5-(2-amino-[1,2,4]triazolo[1,5-a]pyridin-7-yl)-2-methylpyridin-3-yl)-2-fluoro-5-(trifluoromethoxy)benzamide], for which the IC50 in assay [1] (setting [5]) was more than 200 nM; in assay [2] (setting [4]), less than 20 nM.

In the case of `COc1nc(C)c(-c2ccn3nc(N)nc3c2)cc1C(=O)NCc1cc(F)cc(F)c1OCC1CCCC1` [Example 208, 5-{2-amino-[1,2,4]triazolo[1,5-a]pyridin-7-yl}-N-{[2-(cyclopentylmethoxy)-3,5-difluorophenyl]methyl}-2-methoxy-6-methylpyridine-3-carboxamide], the figures for the IC50 in assay [1] (setting [3]) and in assay [2] (setting [4]) were 20 to 200 nM and less than 20 nM, respectively.

On to `[2H]C([2H])([2H])[C@@H](NC(=O)c1cc(-c2ccn3nc(N)nc3c2)c(C)nc1C)c1cc(OC(F)(F)F)ccc1F` [Example 286, (R)-5-(2-amino-[1,2,4]triazolo[1,5-a]pyridin-7-yl)-N-(1-(2-fluoro-5-(trifluoromethoxy)phenyl)ethyl-2,2,2-d3)-2,6-dimethylnicotinamide], for which the IC50 in assay [1] (setting [3]) was 20 to 200 nM; in assay [2] (setting [4]), less than 20 nM.

On to `COc1ncc(-c2ccn3nc(N)nc3c2)cc1C(=O)NCc1ccccc1COC(C)C` [Example 348, 5-(2-amino-[1,2,4]triazolo[1,5-a]pyridin-7-yl)-N-(2-(isopropoxymethyl)benzyl)-2-methoxynicotinamide], for which the IC50 in assay [1] (setting [3]) is 20 to 200 nM; in assay [2] (setting [4]), less than 20 nM.

Turning to `COc1nnc(-c2ccn3nc(N)nc3c2)cc1C(=O)NCc1cc(OC(F)(F)F)ccc1F` [Example 386, 6-(2-amino-[1,2,4]triazolo[1,5-a]pyridin-7-yl)-N-(2-fluoro-5-(trifluoromethoxy)benzyl)-3-methoxypyridazine-4-carboxamide], the IC50 in assay [1] (setting [5]) was more than 200 nM; in assay [2] (setting [6]), 20 to 200 nM.

For `CCc1ccccc1CNC(=O)c1cc(-c2ccn3nc(N)nc3c2)cnc1OC` [Example 133, 5-{2-amino-[1,2,4]triazolo[1,5-a]pyridin-7-yl}-N-[(2-ethylphenyl)methyl]-2-methoxypyridine-3-carboxamide], the IC50 in assay [1] (setting [5]) was more than 200 nM; in assay [2] (setting [6]) it was 20 to 200 nM.

As for `COc1cnc(-c2ccn3nc(N)nc3c2)cc1C(=O)N[C@H](C)c1cc(OC(F)(F)F)ccc1F` [Example 389, (R)-2-(2-amino-[1,2,4]triazolo[1,5-a]pyridin-7-yl)-N-(1-(2-fluoro-5-(trifluoromethoxy)phenyl)ethyl)-5-methoxyisonicotinamide], the IC50 in assay [1] (setting [5]) is more than 200 nM; in assay [2] (setting [6]), 20 to 200 nM.

As to `COc1ncc(-c2ccn3nc(N)nc3c2)cc1C(=O)NCc1cc(F)ccc1OCC1CCCC1` [Example 129, 5-{2-amino-[1,2,4]triazolo[1,5-a]pyridin-7-yl}-N-{[2-(cyclopentylmethoxy)-5-fluorophenyl]methyl}-2-methoxypyridine-3-carboxamide], the results for the IC50 in assay [1] (setting [3]) and in assay [2] (setting [4]) were 20 to 200 nM and less than 20 nM, respectively.
